Measurements from patent US20250230193A1, “CYCLIC COMPOUND HAVING SELECTIVE KRAS INHIBITORY EFFECT ON HRAS AND NRAS” (CHUGAI SEIYAKU KABUSHIKI KAISHA, priority 2022, published 2025).
Where a SMILES comes first, the peptide text is derived from it. Bridges are numbered along the chain shown (N, C = ends). [ ]: non-standard residue; d: D form. The star is where a group is joined. hPhe(3,5-F2-4-CF3) = N[C@@H](CCc1cc(F)c(C(F)(F)F)c(F)c1)C(=O)O; NPrPhe(4-CF3) = CCCN[C@@H](Cc1ccc(C(F)(F)F)cc1)C(=O)O; NMeGly(cPent) = CN[C@H](C(=O)O)C1CCCC1; Nva(3-Et) = CCC(CC)[C@H](N)C(=O)O; NMeD = CN[C@@H](CC(=O)O)C(=O)O; NMeL = CN[C@@H](CC(C)C)C(=O)O; Morpholide = C1CN(*)CCO1; Ac5c = NC1(C(=O)O)CCCC1; Sar = CNCC(=O)O

Columns and labels:
[1] = biological target: GDP-bound NRAS wild-type protein (Homo sapiens, UniProt P01111); assay: Binding to NRAS by surface plasmon resonance (SPR), Single Cycle Kinetics; conditions: for NRAS/KRAS (ratio of KD value with respect to NRAS to KD value with respect to KRAS) / NRAS/KRAS (ratio of KD value for NRAS to KD value for KRAS): GDP-bound NRAS wild-type vs GDP-bound KRAS wild-type
GDP-bound NRAS wild-type protein, sequence (P01111 whole entry): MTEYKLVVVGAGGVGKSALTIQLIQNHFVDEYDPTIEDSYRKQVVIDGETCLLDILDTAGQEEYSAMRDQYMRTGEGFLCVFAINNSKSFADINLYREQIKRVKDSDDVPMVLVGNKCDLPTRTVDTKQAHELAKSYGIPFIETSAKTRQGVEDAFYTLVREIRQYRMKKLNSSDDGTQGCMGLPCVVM

[2] = biological target: GDP-bound HRAS wild-type protein (Homo sapiens, UniProt P01112); assay: Binding to HRAS by surface plasmon resonance (SPR), Single Cycle Kinetics; conditions: for HRAS/KRAS (ratio of KD value with respect to HRAS to KD value with respect to KRAS) / HRAS/KRAS (ratio of KD value for HRAS to KD value for KRAS): GDP-bound HRAS wild-type vs GDP-bound KRAS wild-type
GDP-bound HRAS wild-type protein, sequence (P01112 whole entry): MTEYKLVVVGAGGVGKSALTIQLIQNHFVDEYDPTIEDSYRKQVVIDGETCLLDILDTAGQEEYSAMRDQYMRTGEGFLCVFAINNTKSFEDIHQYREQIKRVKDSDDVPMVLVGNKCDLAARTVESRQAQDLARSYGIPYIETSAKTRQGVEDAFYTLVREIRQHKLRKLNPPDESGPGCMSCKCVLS

[3] = SPR, GDP-bound wild-type proteins

Compound: CCC[C@H]1C(=O)N[C@@H]([C@@H](C)CC)C(=O)N(CCC)CC(=O)N(C)[C@H]2C/C=C\CCN(C2=O)[C@@H](Cc2ccc(C)cc2)C(=O)N(C)CC(=O)N[C@@H](CCc2ccc(C(F)(F)F)c(OC)c2)C(=O)N2C[C@H](OCC)C[C@H]2C(=O)NC2(CC(C)(C)C2)C(=O)N(C)[C@@H](C2CCCC2)C(=O)N(C)[C@H](C(=O)N(C)C)CC(=O)N1C [PP2054]
- NRAS/KRAS (ratio of KD value with respect to NRAS to KD value with respect to KRAS) ([1]; SPR): A (a compound having 10 or more and less than 20 is denoted as A)
- HRAS/KRAS (ratio of KD value with respect to HRAS to KD value with respect to KRAS) ([2]; SPR): A (a compound having 10 or more and less than 20 is denoted as A)

Compound: CCCN(C)C(=O)[C@@H]1CC(=O)N(C)[C@@H](CC(F)F)C(=O)N[C@@H]([C@@H](C)CC)C(=O)N(C)CC(=O)N(C)[C@H]2C/C=C\CCN(C2=O)[C@@H](Cc2ccc(C(F)(F)F)cc2)C(=O)N(C)CC(=O)N[C@@H](CCc2cc(F)c(C(F)(F)F)c(F)c2)C(=O)N2C[C@@H](C)C[C@H]2C(=O)NC2(CCC2)C(=O)N(C)[C@@H](C2CCCC2)C(=O)N1C [PP2000]
- NRAS/KRAS (ratio of KD value for NRAS to KD value for KRAS) ([1]; KD ratio, SPR): A (a compound having 10 or more and less than 20 is denoted as A)
- HRAS/KRAS (ratio of KD value for HRAS to KD value for KRAS) ([2]; KD ratio, SPR): B (a compound having 3 or more and less than 10 is denoted as B)

Compound: CCCN1C(=O)CN(C)C(=O)CN(C)C(=O)[C@H](C(CC)CC)NC(=O)[C@H](CC(C)C)N(C)C(=O)C[C@@H](C(=O)N2CCOCC2)N(C)C(=O)[C@H](C2CCCC2)N(C)C(=O)C2(CCCC2)NC(=O)[C@@H]2CCCN2C(=O)[C@H](CCc2cc(F)c(C(F)(F)F)c(F)c2)NC(=O)CN(C)C(=O)[C@@H]1Cc1ccc(C(F)(F)F)cc1 [PP0768] ([NMeL][Nva(3-Et)][Sar][Sar][NPrPhe(4-CF3)][Sar][hPhe(3,5-F2-4-CF3)]P[Ac5c][NMeGly(cPent)][NMeD]-Morpholide; lactam N-11)
- NRAS/KRAS (ratio of KD value with respect to GDP-bound NRAS wild-type protein to KD value with respect to KRAS) ([1]; SPR): B (a compound having 3 or more and less than 10 is denoted as B)
- HRAS/KRAS (ratio of KD value with respect to GDP-bound HRAS wild-type protein to KD value with respect to KRAS) ([2]; SPR): C (A compound having a KD ratio of 0.1 or more and less than 3 is denoted as C)

Compound: CCO[C@@H]1C[C@H]2C(=O)NC3(CC(C)(C)C3)C(=O)N(C)[C@@H](C3CCCC3)C(=O)N(C)[C@H](C(=O)N(C)C)CC(=O)N(C)[C@@H](CC)C(=O)N[C@@H]([C@@H](C)CC)C(=O)N(C)CC(=O)N(C)[C@H]3C/C=C\CCN(C3=O)[C@@H](Cc3ccc(C)cc3)C(=O)N(C)CC(=O)N[C@@H](CCc3ccc(C(F)(F)F)c(OC)c3)C(=O)N2C1 [PP1873]
- NRAS/KRAS (ratio of KD value for NRAS to KD value for KRAS) ([1]; KD ratio, SPR): A (a compound having 10 or more and less than 20 is denoted as A)
- HRAS/KRAS (ratio of KD value for HRAS to KD value for KRAS) ([2]; KD ratio, SPR): B (a compound having 3 or more and less than 10 is denoted as B)

Compound: CCO[C@@H]1C[C@H]2C(=O)NC3(CC(C)(C)C3)C(=O)N(C)[C@@H](C3CCCC3)C(=O)N(C)[C@H](C(=O)N(C)C)CC(=O)N(C)[C@H]3CCCCCc4ccc(cc4)C[C@@H](C(=O)N(C)CC(=O)N[C@@H](CCc4ccc(Cl)c(Cl)c4)C(=O)N2C1)N1CC/C=C\C[C@@H](C1=O)N(C)C(=O)CN(C)C(=O)[C@H]([C@@H](C)CC)NC3=O [PP3076]
- NRAS/KRAS (ratio of KD value with respect to GDP-bound NRAS wild-type protein to KD value with respect to KRAS) [1, 3]: AA (a compound having 20 or more is denoted as AA)
- HRAS/KRAS (ratio of KD value with respect to GDP-bound HRAS wild-type protein to KD value with respect to KRAS) [2, 3]: A (a compound having 10 or more and less than 20 is denoted as A)

Compound: CCC[C@H]1C(=O)N[C@@H]([C@@H](C)CC)C(=O)N(C2CC2)CC(=O)N(C)[C@H]2C/C=C\CCN(C2=O)[C@@H](Cc2ccc(C(F)(F)F)cc2)C(=O)N(C)CC(=O)N[C@@H](CCc2ccc(C(F)(F)F)c(OC)c2)C(=O)N2C[C@H](OCC)C[C@H]2C(=O)NC2(CC(C)(C)C2)C(=O)N(C)[C@@H](CC2CC2)C(=O)N(C)[C@H](C(=O)N(C)C)CC(=O)N1C [PP2815]
- NRAS/KRAS (ratio of KD value with respect to GDP-bound NRAS wild-type protein to KD value with respect to KRAS) ([1]; class symbols): A (a compound having 10 or more and less than 20 is denoted as A)
- HRAS/KRAS (ratio of KD value with respect to GDP-bound HRAS wild-type protein to KD value with respect to KRAS) ([2]; class symbols): A (a compound having 10 or more and less than 20 is denoted as A)

Compound: CCC[C@H]1C(=O)N[C@@H]([C@@H](C)CC)C(=O)N(C)CC(=O)N(C)[C@H]2C/C=C\CCN(C2=O)[C@@H](Cc2ccc(C)cc2)C(=O)N(C)CC(=O)N[C@@H](CCc2ccc(C(F)(F)F)c(OC)c2)C(=O)N2C[C@H](OCC)C[C@H]2C(=O)NC2(CC(C)(C)C2)C(=O)N(C)[C@@H](CC2CCC2)C(=O)N(C)[C@H](C(=O)N(C)C)CC(=O)N1C [PP2753]
- NRAS/KRAS (ratio of KD value with respect to GDP-bound NRAS wild-type protein to KD value with respect to KRAS) ([1]; class symbols): A (a compound having 10 or more and less than 20 is denoted as A)
- HRAS/KRAS (ratio of KD value with respect to GDP-bound HRAS wild-type protein to KD value with respect to KRAS) ([2]; class symbols): B (a compound having 3 or more and less than 10 is denoted as B)

Compound: CCO[C@@H]1C[C@H]2C(=O)NC3(CCC3)C(=O)N(C)[C@@H](C3CCCC3)C(=O)N(C)[C@H](C(=O)N(C)C)CC(=O)N(C)[C@@H](C)C(=O)N[C@@H]([C@@H](C)CC)C(=O)N(C)CC(=O)N(C)[C@H]3C/C=C\CCN(C3=O)[C@@H](Cc3ccc(C(F)(F)F)cc3)C(=O)N(C)CC(=O)N[C@@H](CCc3cc(F)c(C(F)(F)F)c(F)c3)C(=O)N2C1 [PP1108]
- NRAS/KRAS (ratio of KD value with respect to NRAS to KD value with respect to KRAS) ([1]; KD ratio, SPR): A (a compound having 10 or more and less than 20 is denoted as A)
- HRAS/KRAS (ratio of KD value with respect to HRAS to KD value with respect to KRAS) ([2]; KD ratio, SPR): A (a compound having 10 or more and less than 20 is denoted as A)
